Measured values taken from patent US5085992A, “Microbial transformation process for antihypertensive products” (Merck & Co., Inc., priority 1991, dated 1992).

Target: T1, Angiotensin II (A II) receptor (Oryctolagus cuniculus, UniProt P34976)
T1 construct: tissue Pel-Freeze Biologicals; host or cells: rabbit aorta, membrane preparation (frozen aortae)
T1 sequence (P34976 1-359): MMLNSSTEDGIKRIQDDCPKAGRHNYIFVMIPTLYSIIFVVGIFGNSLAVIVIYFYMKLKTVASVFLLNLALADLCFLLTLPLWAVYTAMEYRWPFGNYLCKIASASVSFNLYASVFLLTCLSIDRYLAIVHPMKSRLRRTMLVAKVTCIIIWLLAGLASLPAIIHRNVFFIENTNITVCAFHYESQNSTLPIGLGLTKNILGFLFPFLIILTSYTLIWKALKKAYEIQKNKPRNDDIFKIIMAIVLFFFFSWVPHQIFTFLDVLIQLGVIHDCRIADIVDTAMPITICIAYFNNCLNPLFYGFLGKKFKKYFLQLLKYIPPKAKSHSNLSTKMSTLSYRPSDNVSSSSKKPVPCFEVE
Test: Receptor binding assay using rabbit aortae membrane preparation ("IC50" assay; displacement of 125I-Sar1 Ile8-angiotensin II)
Conditions: membrane preparation derived from rabbit aortae; 37° C., 90 minutes; read-out: inhibitory concentration (IC50) giving 50% displacement of the total specifically bound 125I-Sar1 Ile8-angiotensin II
Procedure: This assay is also referred to herein as the "IC 50 "assay.
RECEPTOR BINDING ASSAY USING RABBIT AORTAE MEMBRANE PREPARATION
Three frozen rabbit aortae (obtained from Pel-Freeze Biologicals) were suspended in 5 mM Tris-0.25 M Sucrose, pH 7.4 buffer (50 ml) homogenized, and then centifuged. The mixture was filtered through a cheesecloth and the supernatant was centrifuged for 30 minutes at 20,000 rpm at 4° C. The pellet thus obtained was resuspended in 30 ml of 50 mM Tris-5 mM MgCl2 buffer containing 0.2% Bovine Serum Albumin and 0.2 mg/ml Bacitration and the suspension was used for 100 assay tubes. Samples tested for screening were done in duplicate. To the membrane preparation (0.25 ml) there was added ^125 I-Sar^1 Ile^8 -angiotensin II [obtained from New England Nuclear] (10 ul; 20,000 cpm) with or without the test sample and the mixture was incubated at 37° C. for 90 minutes. The mixture was then diluted with ice-cold 50 mM Tris-0.9% NaCl, pH 7.4 (4 ml) and filtered through a glass fiber filter (GF/B Whatman 2.4" diameter). The filter was soaked in scintillation cocktail (10 ml) and counted for radioactivity using Packard 2660 Tricarb liquid scintillation counter. […]

IC50: < 50 µM
SMILES: CCc1nc2c(C)cc(C)nc2n1Cc1ccc(-c2ccccc2-c2nnn([C@@H]3O[C@H](C(=O)O)[C@@H](O)[C@H](O)[C@H]3O)n2)cc1 [compound (I)]
